Test results from US11040981B2, “Pyrrolotriazine compounds and methods of inhibiting TAM kinases” (Syros Pharmaceuticals, Inc., priority 2017, dated 2021).

What was measured:
[1] = target: T1, MERTK (Homo sapiens, UniProt Q12866); experiment: TR-FRET kinase activity assay, MERTK; type: biochemical; settings: for IC50: TR-FRET activity assay, ATP at Km, 60 minutes, read-out: Mer IC50; for FLT3/Mer ratio (FLT3 IC50/Mer IC50): ratio of Mer to FLT3: FLT3 IC50/Mer IC50
T1 sequence (Q12866 21-999): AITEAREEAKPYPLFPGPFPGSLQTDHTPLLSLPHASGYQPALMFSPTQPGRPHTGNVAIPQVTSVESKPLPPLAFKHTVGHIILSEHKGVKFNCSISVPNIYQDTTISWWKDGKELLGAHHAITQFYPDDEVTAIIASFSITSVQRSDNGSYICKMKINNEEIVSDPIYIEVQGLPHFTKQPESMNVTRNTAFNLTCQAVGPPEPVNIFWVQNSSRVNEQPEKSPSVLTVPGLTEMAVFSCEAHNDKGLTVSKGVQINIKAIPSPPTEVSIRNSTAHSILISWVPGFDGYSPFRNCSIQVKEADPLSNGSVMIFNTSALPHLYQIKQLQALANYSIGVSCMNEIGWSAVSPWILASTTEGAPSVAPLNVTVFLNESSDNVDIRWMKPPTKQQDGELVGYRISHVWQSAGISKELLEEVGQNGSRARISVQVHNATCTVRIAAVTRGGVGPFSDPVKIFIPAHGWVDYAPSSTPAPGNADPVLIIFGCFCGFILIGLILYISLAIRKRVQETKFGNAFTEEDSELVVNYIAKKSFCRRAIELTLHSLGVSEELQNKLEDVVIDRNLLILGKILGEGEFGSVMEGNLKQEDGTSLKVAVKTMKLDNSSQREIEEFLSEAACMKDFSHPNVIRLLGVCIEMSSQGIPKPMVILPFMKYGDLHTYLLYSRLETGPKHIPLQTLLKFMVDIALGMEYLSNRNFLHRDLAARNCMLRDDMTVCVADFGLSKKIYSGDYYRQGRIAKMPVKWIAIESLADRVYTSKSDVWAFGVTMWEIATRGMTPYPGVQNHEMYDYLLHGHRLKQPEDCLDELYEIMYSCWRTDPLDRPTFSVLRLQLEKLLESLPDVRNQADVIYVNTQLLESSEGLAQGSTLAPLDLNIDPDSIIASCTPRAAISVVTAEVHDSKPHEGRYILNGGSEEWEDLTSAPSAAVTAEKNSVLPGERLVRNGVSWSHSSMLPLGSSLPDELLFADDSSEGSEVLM
Procedure, shortened: (§1)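 Enzyme, fluorescent peptide substrate and compound were mixed, and the reaction was started with ATP at each kinase's Km, in 50 mM HEPES pH 7.5, 10 mM MgCl2, 1 mM EGTA, 0.01% Brij 35, 1 mM DTT at RT. After 60 minutes EDTA quench, Eu-labelled phospho-specific antibody was added for 30 minutes, and IC50 was derived from TR-FRET signal loss.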

[2] = target: T2, TYRO3 (Homo sapiens, UniProt Q06418); experiment: TR-FRET kinase activity assay, TYRO3; type: biochemical; settings: ATP at Km, 60 minutes
T2 sequence (Q06418 41-890): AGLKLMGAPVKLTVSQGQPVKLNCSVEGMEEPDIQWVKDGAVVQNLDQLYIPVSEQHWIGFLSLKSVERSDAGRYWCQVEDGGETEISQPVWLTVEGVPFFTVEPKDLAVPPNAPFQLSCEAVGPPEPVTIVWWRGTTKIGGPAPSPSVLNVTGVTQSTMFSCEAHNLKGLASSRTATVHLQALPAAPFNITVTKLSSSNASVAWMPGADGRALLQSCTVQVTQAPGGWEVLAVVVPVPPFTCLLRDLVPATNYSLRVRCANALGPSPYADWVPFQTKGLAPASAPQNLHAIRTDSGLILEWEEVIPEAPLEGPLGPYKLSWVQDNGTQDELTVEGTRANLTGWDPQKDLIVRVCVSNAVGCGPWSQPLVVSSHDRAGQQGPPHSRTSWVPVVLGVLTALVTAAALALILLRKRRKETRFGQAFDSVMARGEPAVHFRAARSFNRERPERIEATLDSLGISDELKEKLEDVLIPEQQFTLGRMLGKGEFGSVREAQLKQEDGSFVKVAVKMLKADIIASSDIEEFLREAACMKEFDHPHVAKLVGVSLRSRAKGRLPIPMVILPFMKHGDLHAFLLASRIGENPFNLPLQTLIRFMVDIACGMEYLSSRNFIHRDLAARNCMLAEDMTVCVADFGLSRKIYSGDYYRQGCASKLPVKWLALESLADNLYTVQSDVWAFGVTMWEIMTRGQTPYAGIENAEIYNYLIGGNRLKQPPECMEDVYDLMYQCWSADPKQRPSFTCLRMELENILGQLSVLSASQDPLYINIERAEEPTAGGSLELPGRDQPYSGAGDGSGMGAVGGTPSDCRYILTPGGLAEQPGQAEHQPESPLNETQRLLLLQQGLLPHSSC
Procedure, shortened: as §1

Row | SMILES | IC50 [1] | IC50 [2] | FLT3/Mer ratio (FLT3 IC50/Mer IC50) [1]
1 | CCCCC[C@H](C)Nc1ncc2c(-c3ccc(S(=O)(=O)N4CCOCC4)cc3)cc([C@H]3CC[C@@H](O)CC3)n2n1 [Compound 103, (1R,4s)-4-(2-((S)-heptan-2-ylamino)-5-(4-(morpholinosulfonyl)phenyl)pyrrolo[2,1-f][1,2,4]triazin-7-yl)cyclohexanol] | ≤ 100 nM | 100 to 1000 nM | ++ (“++” represents a ratio of between 10 and 100)
2 | COCC(C)Nc1ncc2c(-c3ccc(C4(N5CCN(C)CC5)CC4)cc3)cc(C3CCC(O)CC3)n2n1 (stereo not drawn) [Compound 185] | ≤ 100 nM | ≤ 100 nM | ++ (“++” represents a ratio of between 10 and 100)
3 | COC[C@H](C)Nc1ncc2c(-c3cn(C)cn3)cc([C@H]3CC[C@H](O)CC3)n2n1 [Compound 186] | ≤ 100 nM | ≤ 100 nM | ++ (“++” represents a ratio of between 10 and 100)
4 | Cc1cc(-c2cc(C3CCC(O)CC3)n3nc(NC(C)CC4CC4)ncc23)ccn1 (stereo not drawn) [Compound 190] | ≤ 100 nM | ≤ 100 nM | +++ (“+++” represents a ratio of >100)
5 | COCC(C)Nc1ncc2c(C3CC4CCC(C3)N4C)cc(C3CCC(O)CC3)n2n1 (stereo not drawn) [Compound 191] | ≤ 100 nM | ≤ 100 nM | +++ (“+++” represents a ratio of >100)
6 | COCC(C)Nc1ncc2c(N3CCOCC3=O)cc(C3CCC(O)CC3)n2n1 (stereo not drawn) [Compound 192] | 100 to 1000 nM | 1000 to 10000 nM | ++ (“++” represents a ratio of between 10 and 100)

More lines, main results first:

Row | IC50 [1] | IC50 [2] | SMILES | FLT3/Mer ratio (FLT3 IC50/Mer IC50) [1]
7 | ≤ 100 nM | ≤ 100 nM | COC[C@H](C)Nc1ncc2c(-c3ccc(C(=O)N4CCOCC4)cc3)cc([C@H]3CC[C@H](O)CC3)n2n1 [Compound 187, (4-(7-((trans)-4-hydroxycyclohexyl)-2-(((S)-1-methoxypropan-2-yl)amino)pyrrolo[2,1-f][1,2,4]triazin-5-yl)phenyl)(morpholino)methanone] | +++ (“+++” represents a ratio of >100)
8 | ≤ 100 nM | ≤ 100 nM | C[C@@H](COC(F)F)Nc1ncc2c(-c3ccc(CN4CCOCC4)cc3)cc([C@H]3CC[C@H](O)CC3)n2n1 [Compound 188] | +++ (“+++” represents a ratio of >100)
9 | ≤ 100 nM | ≤ 100 nM | CC(CC1CC1)Nc1ncc2c(-c3ccc(CN4CCOCC4)cc3)cc(C3CCC(O)CC3)n2n1 (stereo not drawn) [Compound 189] | ++ (“++” represents a ratio of between 10 and 100)
